Experimental data taken from PMC9021288 (Nature Communications, 2022).

Tests used:
[1] = target: T1, hNaV 1.5 (Homo sapiens, UniProt Q14524); assay: Manual patch clamp; format: cell-based; conditions: for Minimum current: single cells and Mean, mean
T1 construct: Metrion Biosciences
Procedure: Safety studies were performed by commercial services using their standard protocols. […] Genotoxicity was investigated using the Ames test (Bacterial Reverse Mutation Assay) (Covance Laboratories Ltd, North Yorkshire, England). In vitro mammalian cell micronucleus screening assay was studied in human peripheral blood lymphocytes (BioReliance Corporation, Rockville, USA). Cardiotoxicity was determined against the hERG channel in an automated patch clamp assay using the Qpatch or against the hNaV 1.5, hKV 1.5 and hCaV 1.2 using a manual patch-clamp technique (Metrion Biosciences, Cambridge, UK). Cytotoxicity in human and rat primary hepatocytes was assessed using the CellTiter-Blue assay performed by commercial services (KaLy-Cell). The viability of HepG2 cells was monitored through the addition of 1 mM resazurin. Following 6 h incubation, the relative amount of reduced resazurin was detected in a fluorimeter and compared to the assay controls (vehicle: 0.1% DMSO and positive control: 10 µM puromycin).

[2] = target: T2, human recombinant CYP1A2 (Homo sapiens, UniProt P05177); assay: CYP reaction phenotyping; format: in vitro ADME
T2 construct: purchased Bactosomes (assay run at Cyprotex)
T2 sequence (P05177 1-516): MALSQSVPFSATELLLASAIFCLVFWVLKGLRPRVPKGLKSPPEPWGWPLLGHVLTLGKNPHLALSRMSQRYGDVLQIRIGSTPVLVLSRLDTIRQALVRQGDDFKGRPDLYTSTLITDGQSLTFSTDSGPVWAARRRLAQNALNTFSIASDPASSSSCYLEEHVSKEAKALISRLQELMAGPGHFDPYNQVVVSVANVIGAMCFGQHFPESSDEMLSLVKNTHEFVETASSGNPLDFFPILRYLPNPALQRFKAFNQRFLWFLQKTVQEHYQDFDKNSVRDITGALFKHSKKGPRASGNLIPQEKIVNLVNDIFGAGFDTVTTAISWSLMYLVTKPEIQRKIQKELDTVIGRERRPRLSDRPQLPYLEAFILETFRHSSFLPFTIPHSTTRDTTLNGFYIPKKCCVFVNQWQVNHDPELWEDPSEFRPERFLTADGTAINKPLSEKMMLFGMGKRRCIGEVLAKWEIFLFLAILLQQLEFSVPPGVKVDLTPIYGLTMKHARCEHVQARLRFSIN
Procedure: (§1) In vitro CYP reaction phenotyping was performed at Cyprotex (Alderly Park, United Kingdom). […] The remaining test compound at each time point was analyzed by LC-MS/MS.

[3] = target: T3, human recombinant CYP3A5 (Homo sapiens, UniProt P20815); assay: CYP reaction phenotyping; format: in vitro ADME; conditions: for Compound remaining (0 min = 100): CYP3A5
T3 construct: purchased Bactosomes (assay run at Cyprotex)
Procedure: as §1

[4] = target: T4, human recombinant CYP2C8 (Homo sapiens, UniProt P10632); assay: CYP reaction phenotyping; format: in vitro ADME
T4 construct: purchased Bactosomes (assay run at Cyprotex)
T4 sequence (P10632 1-490): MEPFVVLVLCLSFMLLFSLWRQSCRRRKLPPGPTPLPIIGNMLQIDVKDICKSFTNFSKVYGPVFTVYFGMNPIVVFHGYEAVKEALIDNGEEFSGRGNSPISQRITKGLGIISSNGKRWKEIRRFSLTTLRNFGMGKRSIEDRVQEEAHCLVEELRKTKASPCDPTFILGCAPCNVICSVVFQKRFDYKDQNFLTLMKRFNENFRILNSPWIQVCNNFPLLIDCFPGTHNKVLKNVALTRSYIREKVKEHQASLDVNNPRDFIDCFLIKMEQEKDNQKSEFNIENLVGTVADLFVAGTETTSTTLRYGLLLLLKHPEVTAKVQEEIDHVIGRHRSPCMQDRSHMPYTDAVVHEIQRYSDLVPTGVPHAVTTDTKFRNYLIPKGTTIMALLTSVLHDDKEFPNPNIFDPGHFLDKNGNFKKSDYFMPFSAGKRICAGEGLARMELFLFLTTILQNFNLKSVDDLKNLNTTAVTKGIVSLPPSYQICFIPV
Procedure: as §1

[5] = target: T5, human recombinant CYP3A4 (Homo sapiens, UniProt P08684); assay: CYP reaction phenotyping; format: in vitro ADME; conditions: for Compound remaining (0 min = 100): CYP3A4
T5 construct: purchased Bactosomes (assay run at Cyprotex)
Procedure: as §1

[6] = target: T6, human recombinant CYP2D6 (Homo sapiens, UniProt P10635); assay: CYP reaction phenotyping; format: in vitro ADME
T6 construct: purchased Bactosomes (assay run at Cyprotex)
Procedure: as §1

[7] = target: T7, human recombinant CYP2B6 (Homo sapiens, UniProt P20813); assay: CYP reaction phenotyping; format: in vitro ADME
T7 construct: purchased Bactosomes (assay run at Cyprotex)
T7 sequence (P20813 1-491): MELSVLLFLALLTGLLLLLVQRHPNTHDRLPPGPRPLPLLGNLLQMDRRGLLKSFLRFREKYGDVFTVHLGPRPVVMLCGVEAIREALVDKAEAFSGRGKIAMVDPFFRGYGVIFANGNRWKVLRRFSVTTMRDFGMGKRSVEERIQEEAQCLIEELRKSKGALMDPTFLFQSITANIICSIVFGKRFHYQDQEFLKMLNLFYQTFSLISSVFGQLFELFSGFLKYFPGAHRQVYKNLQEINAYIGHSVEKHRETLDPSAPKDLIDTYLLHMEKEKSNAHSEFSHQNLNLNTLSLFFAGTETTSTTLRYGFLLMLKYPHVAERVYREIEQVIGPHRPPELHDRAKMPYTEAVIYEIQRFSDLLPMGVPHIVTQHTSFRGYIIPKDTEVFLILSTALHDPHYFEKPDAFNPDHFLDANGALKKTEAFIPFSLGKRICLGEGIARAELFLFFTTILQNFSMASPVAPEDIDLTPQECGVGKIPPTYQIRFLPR
Procedure: as §1

[8] = target: T8, human recombinant CYP2C9 (Homo sapiens, UniProt P11712); assay: CYP reaction phenotyping; format: in vitro ADME
T8 construct: purchased Bactosomes (assay run at Cyprotex)
Procedure: as §1

T8 sequence (P11712 whole entry): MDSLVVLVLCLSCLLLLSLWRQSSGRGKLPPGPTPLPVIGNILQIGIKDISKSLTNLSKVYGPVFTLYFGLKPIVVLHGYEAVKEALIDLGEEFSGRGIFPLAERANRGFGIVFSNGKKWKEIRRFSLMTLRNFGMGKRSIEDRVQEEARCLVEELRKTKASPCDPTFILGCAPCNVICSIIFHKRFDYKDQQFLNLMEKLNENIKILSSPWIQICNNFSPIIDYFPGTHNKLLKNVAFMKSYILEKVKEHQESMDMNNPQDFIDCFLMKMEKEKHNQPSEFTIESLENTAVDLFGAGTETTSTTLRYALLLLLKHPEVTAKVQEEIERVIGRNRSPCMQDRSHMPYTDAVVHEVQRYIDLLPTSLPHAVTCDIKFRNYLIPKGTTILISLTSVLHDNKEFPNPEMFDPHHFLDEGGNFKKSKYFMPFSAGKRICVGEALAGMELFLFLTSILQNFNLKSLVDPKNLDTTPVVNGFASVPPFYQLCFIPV
T1 sequence (Q14524 whole entry): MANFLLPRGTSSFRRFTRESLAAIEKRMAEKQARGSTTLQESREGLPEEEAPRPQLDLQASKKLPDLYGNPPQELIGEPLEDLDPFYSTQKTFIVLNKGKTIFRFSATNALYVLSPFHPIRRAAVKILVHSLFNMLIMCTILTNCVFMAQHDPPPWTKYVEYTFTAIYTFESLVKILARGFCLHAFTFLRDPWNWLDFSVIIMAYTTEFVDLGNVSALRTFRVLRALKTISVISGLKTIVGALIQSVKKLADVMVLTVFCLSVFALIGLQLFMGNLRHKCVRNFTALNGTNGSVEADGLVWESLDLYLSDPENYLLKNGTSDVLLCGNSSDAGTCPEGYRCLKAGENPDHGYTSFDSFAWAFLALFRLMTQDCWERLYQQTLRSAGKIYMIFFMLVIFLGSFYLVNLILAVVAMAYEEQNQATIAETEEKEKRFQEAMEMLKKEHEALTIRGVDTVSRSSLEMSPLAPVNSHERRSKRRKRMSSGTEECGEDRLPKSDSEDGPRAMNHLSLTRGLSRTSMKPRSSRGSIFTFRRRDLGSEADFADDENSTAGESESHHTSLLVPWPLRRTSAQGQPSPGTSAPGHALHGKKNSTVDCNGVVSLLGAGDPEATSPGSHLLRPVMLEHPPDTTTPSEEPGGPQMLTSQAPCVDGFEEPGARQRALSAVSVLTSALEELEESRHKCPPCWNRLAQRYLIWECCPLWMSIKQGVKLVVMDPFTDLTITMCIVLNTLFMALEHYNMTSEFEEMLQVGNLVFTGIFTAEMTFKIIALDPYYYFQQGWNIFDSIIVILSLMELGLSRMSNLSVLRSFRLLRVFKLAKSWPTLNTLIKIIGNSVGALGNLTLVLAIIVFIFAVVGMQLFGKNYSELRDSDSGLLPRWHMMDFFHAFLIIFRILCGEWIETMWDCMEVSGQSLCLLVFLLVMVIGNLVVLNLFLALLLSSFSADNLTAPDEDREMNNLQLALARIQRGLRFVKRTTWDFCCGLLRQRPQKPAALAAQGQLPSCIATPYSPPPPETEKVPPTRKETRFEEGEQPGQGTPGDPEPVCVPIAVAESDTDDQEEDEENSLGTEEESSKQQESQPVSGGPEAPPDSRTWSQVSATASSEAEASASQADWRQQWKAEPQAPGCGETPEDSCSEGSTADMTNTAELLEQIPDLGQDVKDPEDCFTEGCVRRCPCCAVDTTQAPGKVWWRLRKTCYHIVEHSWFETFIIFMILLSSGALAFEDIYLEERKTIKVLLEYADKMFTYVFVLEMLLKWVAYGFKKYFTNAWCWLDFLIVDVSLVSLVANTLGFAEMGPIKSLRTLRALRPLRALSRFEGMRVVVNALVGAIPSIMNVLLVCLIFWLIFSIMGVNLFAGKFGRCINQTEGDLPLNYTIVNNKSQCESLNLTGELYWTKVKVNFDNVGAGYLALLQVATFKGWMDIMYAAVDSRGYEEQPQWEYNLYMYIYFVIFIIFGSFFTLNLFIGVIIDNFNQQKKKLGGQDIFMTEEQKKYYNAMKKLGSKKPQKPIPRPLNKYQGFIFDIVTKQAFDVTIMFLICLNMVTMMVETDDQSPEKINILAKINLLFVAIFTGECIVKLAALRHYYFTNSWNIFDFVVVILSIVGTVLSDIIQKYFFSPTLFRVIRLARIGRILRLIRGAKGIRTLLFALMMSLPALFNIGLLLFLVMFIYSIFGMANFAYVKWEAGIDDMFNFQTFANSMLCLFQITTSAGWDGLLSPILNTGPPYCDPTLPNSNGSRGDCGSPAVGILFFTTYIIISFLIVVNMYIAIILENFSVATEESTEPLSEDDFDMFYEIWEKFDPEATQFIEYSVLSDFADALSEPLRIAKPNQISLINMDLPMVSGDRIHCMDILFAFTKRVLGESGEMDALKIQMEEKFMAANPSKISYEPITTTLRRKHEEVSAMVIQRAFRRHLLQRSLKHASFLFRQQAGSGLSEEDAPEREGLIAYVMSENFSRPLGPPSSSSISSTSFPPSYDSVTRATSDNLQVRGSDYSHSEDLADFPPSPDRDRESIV
T6 sequence (P10635 whole entry): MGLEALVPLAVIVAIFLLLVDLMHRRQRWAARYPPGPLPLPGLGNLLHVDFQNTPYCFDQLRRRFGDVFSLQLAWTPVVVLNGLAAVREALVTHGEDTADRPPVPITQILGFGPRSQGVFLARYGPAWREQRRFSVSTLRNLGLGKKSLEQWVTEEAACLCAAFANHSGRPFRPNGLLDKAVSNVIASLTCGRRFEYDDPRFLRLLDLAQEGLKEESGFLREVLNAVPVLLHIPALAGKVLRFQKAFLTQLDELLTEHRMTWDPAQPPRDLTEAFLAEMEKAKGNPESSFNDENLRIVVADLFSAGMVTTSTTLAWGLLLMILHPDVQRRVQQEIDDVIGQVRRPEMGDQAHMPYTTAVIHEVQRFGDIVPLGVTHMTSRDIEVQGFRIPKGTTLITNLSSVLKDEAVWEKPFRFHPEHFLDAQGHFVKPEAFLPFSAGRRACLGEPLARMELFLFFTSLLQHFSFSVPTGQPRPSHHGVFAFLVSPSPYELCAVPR
T3 sequence (P20815 whole entry): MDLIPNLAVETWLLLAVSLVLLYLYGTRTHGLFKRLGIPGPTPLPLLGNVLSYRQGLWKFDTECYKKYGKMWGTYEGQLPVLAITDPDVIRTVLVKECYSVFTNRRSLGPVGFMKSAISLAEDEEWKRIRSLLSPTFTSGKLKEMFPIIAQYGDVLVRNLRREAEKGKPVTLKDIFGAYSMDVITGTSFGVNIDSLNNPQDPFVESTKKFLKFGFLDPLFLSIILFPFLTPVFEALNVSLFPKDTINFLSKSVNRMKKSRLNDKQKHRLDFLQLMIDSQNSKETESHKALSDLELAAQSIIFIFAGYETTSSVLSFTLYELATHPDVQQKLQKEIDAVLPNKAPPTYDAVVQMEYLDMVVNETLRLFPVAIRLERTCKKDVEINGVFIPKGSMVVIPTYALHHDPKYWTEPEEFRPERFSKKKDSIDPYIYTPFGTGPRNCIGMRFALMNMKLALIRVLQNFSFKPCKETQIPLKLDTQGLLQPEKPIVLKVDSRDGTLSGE
T5 sequence (P08684 whole entry): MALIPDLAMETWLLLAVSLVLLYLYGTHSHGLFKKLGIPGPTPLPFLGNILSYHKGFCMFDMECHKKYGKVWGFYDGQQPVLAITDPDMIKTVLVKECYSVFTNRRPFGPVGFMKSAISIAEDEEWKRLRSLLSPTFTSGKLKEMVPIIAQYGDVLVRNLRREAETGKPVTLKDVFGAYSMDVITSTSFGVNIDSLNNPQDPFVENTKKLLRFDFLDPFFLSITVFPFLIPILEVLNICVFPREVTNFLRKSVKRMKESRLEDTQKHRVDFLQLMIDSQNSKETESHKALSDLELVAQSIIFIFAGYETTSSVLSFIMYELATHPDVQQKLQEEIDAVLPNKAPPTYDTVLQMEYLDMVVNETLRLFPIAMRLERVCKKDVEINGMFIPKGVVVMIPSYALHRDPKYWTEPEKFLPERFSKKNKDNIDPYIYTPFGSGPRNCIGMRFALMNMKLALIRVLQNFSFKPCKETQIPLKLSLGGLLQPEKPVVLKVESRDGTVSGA

C[C@@H](CNC(=O)[C@H](O)C(C)(C)CO)NC(=O)c1cc(F)c(F)cc1F [MMV693183]
Inhibition ([1]; 10 µM): 1.56%
IC50 ([1]; hNav 1.5): > 10 µM
Minimum current ([1]; hNav1.5, 300nM, P1): 1.33%
Minimum current ([1]; hNav1.5, 300nM, P10): 2.55%
Minimum current ([1]; hNav1.5, 1uM, P10): 0.96%
Minimum current ([1]; hNav1.5, 3uM, P1): -2.90%
Minimum current ([1]; hNav1.5, 3uM, P10): 2.43%
Minimum current ([1]; hNav1.5, 10uM, P1): -1.24%
Minimum current ([1]; hNav1.5, 10uM, P10): 1.56%
Compound remaining (0 min = 100) ([2]; Incubation time (minutes) 0): 100
Compound remaining (0 min = 100) ([2]; Incubation time (minutes) 5): 98.3
Compound remaining (0 min = 100) ([2]; Incubation time (minutes) 15): 100
Compound remaining (0 min = 100) ([2]; Incubation time (minutes) 30): 98.6
Compound remaining (0 min = 100) ([2]; Incubation time (minutes) 45): 102
role in oxidative metabolism ([3]; 1 µM, 45 min): responsible for the oxidative metabolism
Compound remaining (0 min = 100) ([3]; Incubation time (minutes) 0): 100
Compound remaining (0 min = 100) ([3]; Incubation time (minutes) 5): 101
Compound remaining (0 min = 100) ([3]; Incubation time (minutes) 15): 92.7
Compound remaining (0 min = 100) ([3]; Incubation time (minutes) 30): 91.6
Compound remaining (0 min = 100) ([3]; Incubation time (minutes) 45): 93.9
Compound remaining (0 min = 100) ([4]; Incubation time (minutes) 0): 100
Compound remaining (0 min = 100) ([4]; Incubation time (minutes) 5): 99.9
Compound remaining (0 min = 100) ([4]; Incubation time (minutes) 15): 100
Compound remaining (0 min = 100) ([4]; Incubation time (minutes) 30): 101
Compound remaining (0 min = 100) ([4]; Incubation time (minutes) 45): 101
role in oxidative metabolism ([5]; 1 µM, 45 min): responsible for the oxidative metabolism
Compound remaining (0 min = 100) ([5]; Incubation time (minutes) 0): 100
Compound remaining (0 min = 100) ([5]; Incubation time (minutes) 5): 101
Compound remaining (0 min = 100) ([5]; Incubation time (minutes) 15): 94.1
Compound remaining (0 min = 100) ([5]; Incubation time (minutes) 30): 90.1
Compound remaining (0 min = 100) ([5]; Incubation time (minutes) 45): 91.5
Compound remaining (0 min = 100) ([6]; Incubation time (minutes) 0): 100
Compound remaining (0 min = 100) ([6]; Incubation time (minutes) 5): 105
Compound remaining (0 min = 100) ([6]; Incubation time (minutes) 15): 101
Compound remaining (0 min = 100) ([6]; Incubation time (minutes) 30): 105
Compound remaining (0 min = 100) ([6]; Incubation time (minutes) 45): 106
Compound remaining (0 min = 100) ([7]; Incubation time (minutes) 0): 100
Compound remaining (0 min = 100) ([7]; Incubation time (minutes) 5): 101
Compound remaining (0 min = 100) ([7]; Incubation time (minutes) 15): 104
Compound remaining (0 min = 100) ([7]; Incubation time (minutes) 30): 97.8
Compound remaining (0 min = 100) ([7]; Incubation time (minutes) 45): 97.9
Compound remaining (0 min = 100) ([8]; Incubation time (minutes) 0): 100
Compound remaining (0 min = 100) ([8]; Incubation time (minutes) 5): 102
Compound remaining (0 min = 100) ([8]; Incubation time (minutes) 15): 100
Compound remaining (0 min = 100) ([8]; Incubation time (minutes) 30): 103
Compound remaining (0 min = 100) ([8]; Incubation time (minutes) 45): 111
